Here are results for 18 molecules from ChEMBL document CHEMBL3997794, “Design and synthesis of benzodiazepine analogs as isoform-selective human lysine deacetylase inhibitors” (Eur J Med Chem, 2017).

One assay has as its target T1, Histone deacetylase 8 (Homo sapiens, UniProt Q9BY41).
T1 sequence (Q9BY41 whole entry): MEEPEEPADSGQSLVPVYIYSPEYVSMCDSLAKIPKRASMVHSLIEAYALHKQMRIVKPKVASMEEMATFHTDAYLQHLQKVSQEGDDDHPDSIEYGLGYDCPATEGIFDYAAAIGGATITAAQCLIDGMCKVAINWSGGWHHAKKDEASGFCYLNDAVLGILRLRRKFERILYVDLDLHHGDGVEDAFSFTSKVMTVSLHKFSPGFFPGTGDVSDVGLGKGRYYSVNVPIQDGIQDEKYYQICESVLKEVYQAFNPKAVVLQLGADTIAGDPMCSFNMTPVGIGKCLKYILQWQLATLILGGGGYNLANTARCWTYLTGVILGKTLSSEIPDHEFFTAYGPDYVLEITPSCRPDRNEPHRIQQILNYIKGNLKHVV
Description: Inhibition of human KDAC8 after 60 mins by fluorescence assay.

Assay [1] has as its target T2, Protein deacetylase HDAC6 (Homo sapiens, UniProt Q9UBN7).
T2 sequence (Q9UBN7 whole entry): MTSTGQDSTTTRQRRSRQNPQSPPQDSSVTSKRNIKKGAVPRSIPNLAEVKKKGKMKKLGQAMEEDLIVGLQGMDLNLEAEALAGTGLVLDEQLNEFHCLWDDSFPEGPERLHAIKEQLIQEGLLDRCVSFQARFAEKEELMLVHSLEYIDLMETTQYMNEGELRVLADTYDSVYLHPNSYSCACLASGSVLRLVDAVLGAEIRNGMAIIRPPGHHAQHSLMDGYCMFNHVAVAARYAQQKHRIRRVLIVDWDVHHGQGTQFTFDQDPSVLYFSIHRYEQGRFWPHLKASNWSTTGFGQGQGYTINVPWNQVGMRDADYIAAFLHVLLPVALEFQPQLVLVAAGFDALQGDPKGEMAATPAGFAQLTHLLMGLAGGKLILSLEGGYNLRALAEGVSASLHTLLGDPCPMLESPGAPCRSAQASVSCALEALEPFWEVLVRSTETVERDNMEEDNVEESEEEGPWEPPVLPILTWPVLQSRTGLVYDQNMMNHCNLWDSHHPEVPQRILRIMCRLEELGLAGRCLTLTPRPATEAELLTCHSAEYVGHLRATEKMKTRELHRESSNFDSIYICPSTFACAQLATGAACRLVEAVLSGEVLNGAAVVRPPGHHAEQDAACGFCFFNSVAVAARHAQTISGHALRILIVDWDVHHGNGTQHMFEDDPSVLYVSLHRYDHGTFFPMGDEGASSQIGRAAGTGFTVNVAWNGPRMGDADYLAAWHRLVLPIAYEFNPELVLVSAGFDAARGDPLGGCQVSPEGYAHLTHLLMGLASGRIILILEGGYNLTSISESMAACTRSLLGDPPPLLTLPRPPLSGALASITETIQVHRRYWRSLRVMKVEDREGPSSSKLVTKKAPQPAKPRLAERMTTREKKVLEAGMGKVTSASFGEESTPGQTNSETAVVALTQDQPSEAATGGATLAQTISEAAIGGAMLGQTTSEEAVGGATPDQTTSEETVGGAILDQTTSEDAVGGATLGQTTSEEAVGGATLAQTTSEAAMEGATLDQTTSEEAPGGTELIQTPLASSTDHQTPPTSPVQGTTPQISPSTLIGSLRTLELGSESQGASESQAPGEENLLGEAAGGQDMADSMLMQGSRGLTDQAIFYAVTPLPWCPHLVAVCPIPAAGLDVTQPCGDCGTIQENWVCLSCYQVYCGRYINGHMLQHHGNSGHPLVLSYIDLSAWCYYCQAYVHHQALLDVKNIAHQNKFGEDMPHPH
In words: Inhibition of human KDAC6 using FITC-labeled histone H4 acetylated peptide as substrate after 60 mins by fluorescence assay.

The target of assay [2] is T3, Histone deacetylase 1 (Homo sapiens, UniProt Q13547). Description: Inhibition of human KDAC1 using substrate A after 60 mins by fluorescence assay.
T3 sequence (Q13547 whole entry): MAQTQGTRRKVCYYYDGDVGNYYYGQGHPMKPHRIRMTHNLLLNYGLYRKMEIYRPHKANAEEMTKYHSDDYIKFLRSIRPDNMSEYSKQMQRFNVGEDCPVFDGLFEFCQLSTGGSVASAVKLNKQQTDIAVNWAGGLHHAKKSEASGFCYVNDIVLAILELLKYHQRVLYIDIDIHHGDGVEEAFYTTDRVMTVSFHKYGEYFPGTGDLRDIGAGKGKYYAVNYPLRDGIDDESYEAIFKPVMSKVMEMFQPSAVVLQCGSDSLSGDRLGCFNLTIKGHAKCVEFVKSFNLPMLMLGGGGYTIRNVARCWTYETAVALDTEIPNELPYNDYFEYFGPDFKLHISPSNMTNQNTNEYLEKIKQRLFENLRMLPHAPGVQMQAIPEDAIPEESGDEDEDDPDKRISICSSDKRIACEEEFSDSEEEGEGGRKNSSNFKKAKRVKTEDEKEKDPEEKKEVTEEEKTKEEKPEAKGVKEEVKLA
In assay [3] the target is T4, Protein deacetylase HDAC6 (Homo sapiens) (UniProt Q9UBN7).
T4 sequence (whole entry): T2 sequence (Q9UBN7 whole entry)
Particulars: at 30 µM.
Description: Inhibition of human KDAC6 at 30 uM using FITC-labeled histone H4 acetylated peptide as substrate after 60 mins by fluorescence assay relative to control

Assay [4] has as its target T5, Histone deacetylase 8 (Homo sapiens) (UniProt Q9BY41).
T5 sequence (whole entry): T1 sequence (Q9BY41 whole entry)
Description: Inhibition of human KDAC8 at 30 uM after 60 mins by fluorescence assay relative to control.

In assay [5] the target is T3, Histone deacetylase 1. In words: Inhibition of human KDAC1 at 30 uM using substrate A after 60 mins by fluorescence assay relative to control.
In assay [6] the target is T6, Histone deacetylase 3 (Homo sapiens, UniProt O15379). Description: Inhibition of human KDAC3 at 30 uM using FITC-labeled p53 acetylated peptide as substrate after 60 mins by fluorescence assay relative to control.
T6 sequence (O15379 whole entry): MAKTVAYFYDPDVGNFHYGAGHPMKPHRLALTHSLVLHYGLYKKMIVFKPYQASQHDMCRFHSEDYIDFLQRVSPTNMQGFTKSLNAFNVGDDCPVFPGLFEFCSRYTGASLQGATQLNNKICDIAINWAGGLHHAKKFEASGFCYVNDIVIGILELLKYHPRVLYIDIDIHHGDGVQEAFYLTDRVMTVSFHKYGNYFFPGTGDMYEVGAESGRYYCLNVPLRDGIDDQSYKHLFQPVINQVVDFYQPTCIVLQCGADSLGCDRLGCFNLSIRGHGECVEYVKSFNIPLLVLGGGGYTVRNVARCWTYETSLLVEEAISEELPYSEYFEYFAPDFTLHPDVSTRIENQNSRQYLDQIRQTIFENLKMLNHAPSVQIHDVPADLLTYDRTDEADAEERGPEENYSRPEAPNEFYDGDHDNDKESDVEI
Assay [7] addresses T6, Histone deacetylase 3. In words: Inhibition of human KDAC3 using FITC-labeled p53 acetylated peptide as substrate after 60 mins by fluorescence assay.

For orientation: IC50 means the concentration at which inhibition is half-maximal. The low end stands for greater potency in that assay, the high end for weaker potency in that assay. The term inhibition denotes the drop in the measured response relative to a control, in per cent.

Turning to `COC(=O)CCCCN1C(=O)[C@H](C(C)C)N=C(c2ccccc2)c2ccccc21`, the IC50 (against Histone deacetylase 8; in assay [1]; against Histone deacetylase 1 [2]; on Histone deacetylase 3 [7]) was more than 30 µM throughout. Also, the inhibition in assay [3] came out at 0%; in assay [4], 9.56%; at Histone deacetylase 1 [5], 12.5%; against Histone deacetylase 3 [6] it was 0%.

For `COC(=O)CCCCN1C(=O)[C@H](Cc2ccccc2)N=C(c2ccccc2)c2ccccc21`, the IC50 (on Histone deacetylase 8; in assay [1]; against Histone deacetylase 1 [2]; at Histone deacetylase 3 [7]) was more than 30 µM in each case. Moreover, the inhibition in assay [3] stood at 6.49%; in assay [4], 0%; on Histone deacetylase 1 [5], 1.72%; on Histone deacetylase 3 [6], 1.85%.

Take `COC(=O)CCCCN1C(=O)[C@H](CC(C)C)N=C(c2ccccc2)c2ccccc21`: the IC50 (on Histone deacetylase 8; in assay [1]; against Histone deacetylase 1 [2]; at Histone deacetylase 3 [7]) was more than 30 µM in each case. Also, the inhibition in assay [3] amounted to 0%; in assay [4], 7.63%; against Histone deacetylase 1 [5], 8.85%; against Histone deacetylase 3 [6], 0%.

`COC(=O)CCCCN1C(=O)[C@H](Cc2ccc(OC(C)(C)C)cc2)N=C(c2ccccc2)c2ccccc21`: the IC50 (against Histone deacetylase 8; in assay [1]; at Histone deacetylase 1 [2]; on Histone deacetylase 3 [7]) was more than 30 µM each time. The inhibition was determined as 0% in assay [3], 0% in assay [4], 8.72% on Histone deacetylase 1 [5] and 0.98% against Histone deacetylase 3 [6].

In the case of `O=C(O)CC[C@@H]1N=C(c2ccccc2)c2ccccc2NC1=O`, the IC50 (on Histone deacetylase 8; in assay [1]; at Histone deacetylase 1 [2]; on Histone deacetylase 3 [7]) was more than 30 µM throughout. Besides, the inhibition in assay [3] was 0%; in assay [4] it was 0%; against Histone deacetylase 1 [5], 2.44%; at Histone deacetylase 3 [6], 0%.

Turning to `C[C@@H](OCc1ccccc1)[C@@H]1N=C(c2ccccc2)c2ccccc2N(CCCCC(=O)NO)C1=O`, the IC50 is 29.5 µM on Histone deacetylase 8, 2.05 µM in assay [1], 4.55 µM against Histone deacetylase 1 [2] and 0.91 µM against Histone deacetylase 3 [7]. Further, the inhibition in assay [3] was determined as 98.1%; in assay [4] it was 50.1%; at Histone deacetylase 1 [5], 82.4%; against Histone deacetylase 3 [6], 97.2%.

As to `O=C(CC[C@H]1N=C(c2ccccc2)c2ccccc2NC1=O)NO`, the IC50 (against Histone deacetylase 8; in assay [1]; against Histone deacetylase 1 [2]; against Histone deacetylase 3 [7]) was more than 30 µM throughout. The inhibition turned out to be 19% in assay [3], 9.02% in assay [4], 28% at Histone deacetylase 1 [5] and 29.4% at Histone deacetylase 3 [6].

In the case of `C[C@@H]1N=C(c2ccccc2)c2ccccc2NC1=O`, the concentration for half-maximal inhibition (IC50) (against Histone deacetylase 8; in assay [1]; at Histone deacetylase 1 [2]; at Histone deacetylase 3 [7]) was more than 30 µM throughout. In addition, the inhibition in assay [3] came out at 0%; in assay [4] it was 0%; against Histone deacetylase 1 [5], 7.49%; against Histone deacetylase 3 [6], 0%.

For the molecule `CC(C)(C)OC(=O)n1cc(C[C@@H]2N=C(c3ccccc3)c3ccccc3NC2=O)c2ccccc21`, the IC50 (against Histone deacetylase 8; in assay [1]; against Histone deacetylase 1 [2]; against Histone deacetylase 3 [7]) was more than 30 µM throughout. Also, the inhibition stood at 0% in assay [3], 0% in assay [4], 6.47% at Histone deacetylase 1 [5] and 1.32% on Histone deacetylase 3 [6].

In the case of `CC(C)(C)OC(=O)C[C@@H]1N=C(c2ccccc2)c2ccccc2NC1=O`, the IC50 (against Histone deacetylase 8; in assay [1]; against Histone deacetylase 1 [2]; on Histone deacetylase 3 [7]) was more than 30 µM in each case. The inhibition turned out to be 0% in assay [3], 5.34% in assay [4], 9.6% against Histone deacetylase 1 [5] and 3.95% against Histone deacetylase 3 [6].

Take `O=C1Nc2ccccc2C(c2ccccc2)=N[C@H]1Cc1ccccc1`: the IC50 (against Histone deacetylase 8; in assay [1]; at Histone deacetylase 1 [2]; at Histone deacetylase 3 [7]) was more than 30 µM each time. The inhibition amounted to 3.33% in assay [3], 0% in assay [4], 0.91% against Histone deacetylase 1 [5] and 0% against Histone deacetylase 3 [6].

Take `COC(=O)CCCCN1C(=O)[C@H](COC(C)(C)C)N=C(c2ccccc2)c2ccccc21`: the IC50 (at Histone deacetylase 8; in assay [1]; against Histone deacetylase 1 [2]; at Histone deacetylase 3 [7]) was more than 30 µM throughout. Moreover, the inhibition in assay [3] was 0%; in assay [4], 5%; at Histone deacetylase 1 [5], 0.36%; at Histone deacetylase 3 [6], 0%.

Take `C[C@H](OCc1ccccc1)[C@@H]1N=C(c2ccccc2)c2ccccc2NC1=O`: the concentration for half-maximal inhibition (IC50) (on Histone deacetylase 8; in assay [1]; against Histone deacetylase 1 [2]; against Histone deacetylase 3 [7]) was more than 30 µM each time. In addition, the inhibition in assay [3] is 3.08%; in assay [4], 9.14%; on Histone deacetylase 1 [5], 1.5%; against Histone deacetylase 3 [6] it was 2.49%.

As for `C[C@H](OCc1ccccc1)[C@@H]1N=C(c2ccccc2)c2ccccc2N(CCCCC(=O)O)C1=O`, the IC50 (on Histone deacetylase 8; in assay [1]; against Histone deacetylase 1 [2]; on Histone deacetylase 3 [7]) was more than 30 µM throughout. Also, the inhibition amounted to 0% in assay [3], 15.4% in assay [4], 2.94% on Histone deacetylase 1 [5] and 0% against Histone deacetylase 3 [6].

Regarding `CC(C)(C)Oc1ccc(C[C@@H]2N=C(c3ccccc3)c3ccccc3NC2=O)cc1`, the IC50 (against Histone deacetylase 8; in assay [1]; on Histone deacetylase 1 [2]; at Histone deacetylase 3 [7]) was more than 30 µM in each case. The inhibition in assay [3] was determined as 0%; in assay [4], 0%; at Histone deacetylase 1 [5], 4.79%; at Histone deacetylase 3 [6], 0%.

On to `O=C(CCCCN1C(=O)[C@H](Cc2cncn2C(c2ccccc2)(c2ccccc2)c2ccccc2)N=C(c2ccccc2)c2ccccc21)NO`, for which the IC50 against Histone deacetylase 8 is more than 30 µM; in assay [1], 4.74 µM; on Histone deacetylase 1 [2] it was more than 30 µM; at Histone deacetylase 3 [7], 2.55 µM. Moreover, the inhibition was 89.9% in assay [3], 1.38% in assay [4], 22.3% on Histone deacetylase 1 [5] and 93.4% at Histone deacetylase 3 [6].

Take `O=C(CCCCN1C(=O)[C@H](Cc2cnc[nH]2)N=C(c2ccccc2)c2ccccc21)NO`: the IC50 against Histone deacetylase 8 is more than 30 µM; in assay [1], 4.98 µM; against Histone deacetylase 1 [2], 13.9 µM; against Histone deacetylase 3 [7], 1.32 µM. Also, the inhibition in assay [3] was 84.6%; in assay [4] it was 42.4%; on Histone deacetylase 1 [5], 61.4%; on Histone deacetylase 3 [6], 99%.

Turning to `CC(C)(C)OC(=O)C[C@H]1N=C(c2ccccc2)c2ccccc2NC1=O`, the IC50 (against Histone deacetylase 8; in assay [1]; at Histone deacetylase 1 [2]; against Histone deacetylase 3 [7]) was more than 30 µM each time. In addition, the inhibition in assay [3] came to 0%; in assay [4] it was 0%; against Histone deacetylase 1 [5], 0.37%; against Histone deacetylase 3 [6] it was 0%.
